Measured values reported in PMC4775225, “Bromodomain inhibition of the transcriptional coactivators CBP/EP300 as a therapeutic strategy to target the IRF4 network in multiple myeloma” (eLife, 2016).
Where two headings read alike, the source gives them in different places.

Columns and labels:
[1] = system: MYC mRNA; assay: MYC mRNA expression, qRT-PCR; assay type: cell-based, human; details: for IC50: Homo sapiens, read-out: IC50, inhibition of MYC mRNA expression; for log2FC (MYC): 2.5 μM, 6 hr, log2 fold change relative to DMSO
Procedure: Total RNA was prepared with an RNeasy Mini Kit (Qiagen, Inc.; Hilden, Germany) with on column DNAse digestion and submitted to Ocean Ridge Biosciences (Palm Beach Gardens, FL) for sequencing and mapping. The data in RPKM for each gene with compound treatment was compared to DMSO treatment, and log2 fold changes were used for further analysis. Rank ordered gene lists were used for Gene Set Enrichment Analysis ([Subramanian et al., 2005]). RNA preparation, cDNA synthesis, and qRT-PCR were performed as described ([Mertz et al., 2011]). For dose titration experiments, cells in 96 -well plates were lysed in lysis buffer (1% Triton X-100, […] pH 2.5) and used directly for cDNA synthesis and qRT-PCR. Primer sequences can be found in Supplementary file 1.

[2] = system: KMS20; assay: Viability, resazurin, 6 days; assay type: cell-based; details: Homo sapiens, KMS-20, 144 h, KMS20, myeloma
Procedure: (§1) Cells were plated at 5000–10000 cells per well of 96-well plates containing titrations of the compounds as indicated. After incubation, the cells were incubated with 500 μg/ml resazurin (Sigma) in PBS for 2–8 hr, and fluorescence was measured (Ex 530 nm, Em 590 nm). Cell cycle analysis was performed as described previously ([Mertz et al., 2011]). For visualization, DNA content histograms were generated with GraphPad Prism. Dose-response curves were generated by plotting the normalized percent growth, percent sub-G1 and percent increase in G0/G1 at each dose values. GI50 values were determined as the concentration at which viability was 50% of the DMSO value and calculated by a four-parameter non-linear regression model in GraphPad Prism.

[3] = system: Kasumi-1; assay: Viability, resazurin, 6 days; assay type: cell-based; details: Homo sapiens, 144 h, Kasumi-1, AML
Procedure: as §1

[4] = target: T1, full length BRD4 ZsGreen fusion protein (Homo sapiens, UniProt O60885); assay: Bromodomain chromatin release assay, BRD4 (U2OS, high content imaging); assay type: cell-based; details: 2 hr, n = 2 biological replicates ± SEM, read-out: IC50 (μM), BRD4 chromatin release (EC50)
T1 construct: CBP: CBP-bromodomain/BRD9; BRD4: full length BRD4; expressed in transfected cells
Procedure: As described previously ([Huang et al., 2014]), this assay monitors the compound-dependent release and aggregation of a fusion protein consisting of a bromodomain and the fluorescent protein ZsGreen. For the BRD4 chromatin release assay, U2OS cells capable of inducibly expressing the full-length BRD4 protein in fusion with ZsG were generated using the pLVT3G/ZsGreen-BRD4/TO3G vector and maintained in blasticidin at 15 μg/ml. […] Therefore, the bromodomain (BD) of CBP was cloned into full length BRD9 (replacing the BRD9 BD) in frame with a ZsGreen fluorescent tag (ZsG). U2OS cells capable of inducibly expressing the ZsGreen-CBPBD fusion protein were generated by lentiviral delivery of the pLVT3G/BRD9-ZsG-CBPBD/TO3G vector, which contains both the inducible fusion protein and the tet transactivator. Cells were selected and maintained in the presence of 15 μg/ml blasticidin. 5000 cells/well were seeded in 384-well imaging plates in the presence of 2 μg/ml doxycycline to induce the expression of ZsG-fusion proteins. After 16 hr of incubation with doxycycline, fresh media containing serial dilution of compounds were added to the cells for 2 hr at 37°C. Cells were fixed with 4% paraformaldehyde (PFA) dissolved in PBS for 15 min at room temperature. Images of cells were acquired using ImageXpress Micro (Molecular Devices, Inc.; Sunnyvale, CA) and processed with the Transfluor Module of MetaXpress software. Average pits per cell values were obtained from four adjacent images in each well with two technical replicates for each compound concentration. Dose-response curves were generated by plotting the average pits per cell values at each dose and EC50 values were calculated by a four-parameter non-linear regression model in GraphPad Prism.

[5] = system: KMM-1; assay: Viability, resazurin, 6 days; assay type: cell-based, human; details: for GI50: Homo sapiens, 144 h, KMM-1, myeloma, 6 days
Procedure: as §1

[6] = system: RPMI-8226; assay: Viability, resazurin, 6 days; assay type: cell-based, human; details: for GI50: Homo sapiens, 144 h, RPMI-8226, myeloma, 6 days
Procedure: as §1

[7] = system: KMS28BM; assay: Viability, resazurin, 6 days; assay type: cell-based, human; details: for GI50: Homo sapiens, KMS-28BM, 144 h, myeloma, 6 days
Procedure: as §1

[8] = system: LP-1; assay: Viability, resazurin, 6 days; assay type: cell-based, human; details: for GI50: Homo sapiens, 144 h, LP-1, myeloma, 6 days
Procedure: as §1

[9] = system: AMO-1; assay: Viability, resazurin, 6 days; assay type: cell-based, human; details: for GI50: Homo sapiens, AMO1, 144 h, AMO-1, myeloma, 6 days
Procedure: as §1

[10] = system: MOLP-8; assay: Viability, resazurin, 6 days; assay type: cell-based, human; details: for GI50: Homo sapiens, 144 h, MOLP-8, myeloma, 6 days
Procedure: as §1

[11] = system: RS4;11; assay: Viability, resazurin, 6 days; assay type: cell-based, human; details: for GI50: Homo sapiens, 144 h, RS4;11, ALL, 6 days
Procedure: as §1

[12] = system: OPM2; assay: Viability, resazurin, 6 days; assay type: cell-based, human; details: for GI50: Homo sapiens, OPM-2, 144 h, OPM2, myeloma, 6 days
Procedure: as §1

[13] = system: NCI-H929; assay: Viability, resazurin, 6 days; assay type: cell-based, human; details: for GI50: Homo sapiens, 144 h, NCI-H929, myeloma, 6 days
Procedure: as §1

IC50 ([1]; OPM-2, OPM2, 6 hr)	IC50 ([1]; LP-1, 6 hr)	EC50 [4]	GI50 [6]	GI50 [11]	GI50 [13]	SMILES	GI50 [2]	GI50 [3]	GI50 [5]	GI50 [7]	GI50 [8]	GI50 [9]	GI50 [10]	GI50 [12]	also measured
6.1 µM	11.3 µM	> 20 µM	14.6 µM	15.6 µM	3.8 µM	CCC(=O)N1CCOc2c(cc(-c3ccc(OC)c(OC)c3)cc2OC[C@H]2CCCN(C)C2)C1 [I-CBP112]	2.97 µM	3.22 µM	> 20 µM	4.44 µM	1.51 µM	9.39 µM	3.52 µM	2.82 µM	–
2.3 µM	2.5 µM	18.7 ± 1.2 µM	3.44 µM	9.99 µM	1.68 µM	COc1ccc(CCc2nc3cc(-c4c(C)noc4C)ccc3n2C[C@H](C)N2CCOCC2)cc1Cl [SGC-CBP30]	1.05 µM	1.95 µM	11.7 µM	2.17 µM	0.78 µM	1.8 µM	2.06 µM	1.53 µM	log2FC (MYC) ([1]; AMO1): -1.13; log2FC (MYC) ([1]; H929): -1.24; log2FC (MYC) ([1]; KMM1): -0.48; log2FC (MYC) ([1]; KMS28BM): -0.63; log2FC (MYC) ([1]; LP1): -1.07; log2FC (MYC) ([1]; MOLP8): -0.64; log2FC (MYC) ([1]; OPM2): -0.71; log2FC (MYC) ([1]; RPMI8226): -0.49; log2FC (MYC) ([1]; RS411): -0.56; log2GI50 ([5]; KMM1): 3.54; log2GI50 ([6]; RPMI8226): 1.78; log2GI50 [7]: 1.12; log2GI50 ([8]; LP1): -0.36; log2GI50 ([9]; AMO1): 0.85; log2GI50 ([10]; MOLP8): 1.04; log2GI50 ([11]; RS411): 3.32; log2GI50 ([12]; OPM2): 0.61; log2GI50 ([13]; H929): 0.75
